Source: US20060069132A1, “Azolecarboxamide herbicides” (priority 2004, published 2006)

What was measured:
kochia = experiment: Test E pre-/postemergence herbicide test; assay type: in vivo, Kochia scoparia
From the text: (§1) Seeds of plant species selected from bipinnate beggarticks (Bidens bipinnata L.), hairy beggarticks (Bidens radiata Thuill.), bermudagrass (Cynodon dactylon (L.) Pers.), Surinam grass (Urochloa decumbens (Staph) R. D. Webster, previously named Brachiaria decumbens Stapf), large crabgrass (Digitaria sanguinalis (L.) Scop.), green foxtail (Setaria viridis (L.) P. Beauv.), goosegrass (Eleusine indica (L.) Gaertn.), johnsongrass (Sorghum halepense (L.) Pers.), kochia (Kochia scoparia (L.) Schrad.), pitted morningglory (Ipomoea lacunosa L.), purple nutsedge (Cyperus rotundus L.), common ragweed (Ambrosia elatior L.), mustard (Brassica nigra (L.) W. D. J. Koch), guineagrass (Panicum maximum Jacq.), dallisgrass (Paspalum dilatatum Poir.), barnyardgrass (Echinochloa crus-galli (L). P. Beauv.), southern sandbur (Cenchrus echinatus L.), common sowthistle (Sonchus oleraceous L.), prickly sida (Sida spinosa L.), Italian ryegrass (Lolium multiflorum Lam.), common purslane (Portulaca oleracea L.), broadleaf signalgrass (Brachiaria platyphylla (Griseb.) Nash), common groundsel (Senecio vulgaris L.), common chickweed (Stellaria media (L.) Vill/Cyr.), tropical spiderwort (Commelina benghalensis L.), annual bluegrass (Poa annua L.), downy bromegrass (Bromus tectorum L.), itchgrass (Rottboellia cochinchinensis (L.) L.f.), quackgrass (Elytrigia repens (L.) Nevski), Canada horseweed (Erigeron Canadensis L.), field bindweed (Convolvulus arvensis L.), spotted spurge (Euphorbia maculata L.), common mallow (Malva sylvestris (=s silvestris) L.), and Russian thistle (Salsola kali L. ssp. Ruthenica (Iljin) Soo) were planted and treated preemergence with test chemicals formulated in a non-phytotoxic solvent mixture which included a surfactant.
(§2) At the same time, plants selected from these weed species were treated with postemergence applications of some of the test chemicals formulated in the same manner. Plants ranged in height from 2 to 18 cm (1- to 4-leaf stage) for postemergence treatments. Treated plants and controls were maintained in a greenhouse for 12 to 14 days, after which time all species were compared to controls and visually evaluated. Plant response ratings, summarized in Table E, are based on a scale of 0 to 100 where 0 is no effect and 100 is complete control. A dash (-) response means no test result.

purple redstem = experiment: Test D flooded paddy test; assay type: in vivo, Ammannia coccinea; conditions: 21 days, scale 0 to 100
From the text: (§3) Three plastic pots (ca. 16-cm diameter) per rate were partially filled with sterilized Tama silt loam soil comprising a 35:50:15 ratio of sand, silt and clay and 2.6% organic matter. Separate plantings for each of the three pots were as follows. Seeds from the U.S. of ducksalad (Heteranthera limosa (Sw.) Willd.), smallflower umbrella sedge (Cyperus difformis L.) and purple redstem (Ammannia coccinea Rottb.), were planted into one 16-cm pot for each rate. Seeds from the U.S. of rice flatsedge (Cyperus iria L.), bearded sprangletop (Leptochloa fascicularis (Lam.) Gray), one stand of 9 or 10 water seeded rice seedlings (Oryza sativa L. cv. ‘Japonica—M202’), and one stand of 6 transplanted rice seedlings (Oryza sativa L. cv. ‘Japonica—M202’) were planted into one 16-cm pot for each rate. Seeds from the U.S. of barnyardgrass (Echinochloa crus-galli (L.) Beauv.), late watergrass (Echinochloa oryzicola Vasinger), early watergrass (Echinochloa oryzoides (Ard.) Fritsch) and junglerice (Echinochloa colona (L.) Link) were planted into one 16-cm pot for each rate. Plantings were sequential so that crop and weed species were at the 2.0 to 2.5-leaf stage at time of treatment.
(§4) Potted plants were grown in a greenhouse with day/night temperature settings of 29.5/26.7° C., and supplemental balanced lighting was provided to maintain a 16-hour photoperiod. Test pots were maintained in the greenhouse until test completion.
(§5) At time of treatment, test pots were flooded to 3 cm above the soil surface, treated by application of test compounds directly to the paddy water, and then maintained at that water depth for the duration of the test. Effects of treatments on rice and weeds were visually evaluated by comparison to untreated controls after 21 days. Plant response ratings are reported on a 0 to 100 scale; where 0 is no effect and 100 is complete control. A dash (-) response means no test result.

rice flatsedge = experiment: Test D flooded paddy test; assay type: in vivo, Cyperus iria; conditions: 21 days, scale 0 to 100
From the text: as §3, §4, §5

bearded sprangletop = experiment: Test D flooded paddy test; assay type: in vivo, Leptochloa fascicularis; conditions: 21 days, scale 0 to 100
From the text: as §3, §4, §5

[1] = test system: transplanted rice seedlings; experiment: Test D flooded paddy test; assay type: in vivo, Oryza sativa; conditions: 21 days, scale 0 to 100
From the text: as §3, §4, §5

[2] = test system: water seeded rice seedlings; experiment: Test D flooded paddy test; assay type: in vivo, Oryza sativa; conditions: 21 days, scale 0 to 100
From the text: as §3, §4, §5

barnyardgrass = experiment: Test D flooded paddy test; assay type: in vivo, Echinochloa crus-galli; conditions: 21 days, scale 0 to 100
From the text: as §3, §4, §5

early watergrass = experiment: Test D flooded paddy test; assay type: in vivo, Echinochloa oryzoides; conditions: 21 days, scale 0 to 100
From the text: as §3, §4, §5

junglerice = experiment: Test D flooded paddy test; assay type: in vivo, Echinochloa colona; conditions: 21 days, scale 0 to 100
From the text: as §3, §4, §5

bipinnate beggarticks = experiment: Test E pre-/postemergence herbicide test; assay type: in vivo, Bidens bipinnata; conditions: Preemergence
From the text: as §1, §2

[3] = Preemergence, 62 g ai/ha, scale 0 to 100
[4] = Preemergence, 250 g ai/ha, scale 0 (no effect) to 100 (complete control)
[5] = Preemergence, 500 g ai/ha, scale 0 (no effect) to 100 (complete control)
[6] = 250 g ai/ha, scale 0 (no effect) to 100 (complete control)
[7] = 500 g ai/ha, scale 0 (no effect) to 100 (complete control)

Structure (SMILES): CCn1nc(C(C)(C)C)cc1C(=O)Nc1cc(C(=O)N(C)C)ccc1F [Compound 6, N-[5-[(dimethylamino)carbonyl]-2-fluorophenyl]-3-(1,1-dimethylethyl)-1-ethyl-1H-pyrazole-5-carboxamide]
- Plant response rating, Kochia (kochia; Postemergence, 500 g ai/ha, scale 0 to 100): 100
- Plant response rating, Kochia (kochia; Postemergence, 250 g ai/ha, scale 0 to 100): 100
- Plant response rating, Kochia (kochia; [3]): 100
- Plant response rating, Kochia (kochia; Preemergence, 125 g ai/ha, scale 0 (no effect) to 100 (complete control)): 100
- Plant response rating, Kochia (kochia; [4]): 100
- Plant response rating, Kochia (kochia; [5]): 100
- Plant response rating, Kochia (kochia; postemergence, 125 g ai/ha, scale 0 to 100): 100
- Plant response rating, Kochia (kochia; postemergence, 62 g ai/ha, scale 0 to 100): 100

Structure (SMILES): CCNC(=O)c1ccnc(NC(=O)c2cc(C(C)(C)C)nn2CC)c1 [Compound 152]
- Plant response rating, Redstem (purple redstem; 8 g ai/ha): 0
- Plant response rating, Redstem (purple redstem; 16 g ai/ha): 0
- Plant response rating, Redstem (purple redstem; 32 g ai/ha): 60
- Plant response rating, Redstem (purple redstem; 64 g ai/ha): 85
- Plant response rating, Redstem (purple redstem; 125 g ai/ha): 90
- Plant response rating, Flatsedge, Rice (rice flatsedge; 8 g ai/ha): 75
- Plant response rating, Flatsedge, Rice (rice flatsedge; 16 g ai/ha): 75
- Plant response rating, Flatsedge, Rice (rice flatsedge; 32 g ai/ha): 75
- Plant response rating, Flatsedge, Rice (rice flatsedge; 64 g ai/ha): 90
- Plant response rating, Flatsedge, Rice (rice flatsedge; 125 g ai/ha): 95
- Plant response rating, Sprangletop, Bearded (bearded sprangletop; 8 g ai/ha): 30
- Plant response rating, Sprangletop, Bearded (bearded sprangletop; 16 g ai/ha): 30
- Plant response rating, Sprangletop, Bearded (bearded sprangletop; 32 g ai/ha): 30
- Plant response rating, Sprangletop, Bearded (bearded sprangletop; 64 g ai/ha): 35
- Plant response rating, Sprangletop, Bearded (bearded sprangletop; 125 g ai/ha): 40
- Plant response rating, Rice, Transplanted ([1]; 8 g ai/ha): 0
- Plant response rating, Rice, Transplanted ([1]; 16 g ai/ha): 20
- Plant response rating, Rice, Transplanted ([1]; 32 g ai/ha): 25
- Plant response rating, Rice, Transplanted ([1]; 64 g ai/ha): 40
- Plant response rating, Rice, Transplanted ([1]; 125 g ai/ha): 45
- Plant response rating, Rice, Water Seeded ([2]; 8 g ai/ha): 0
- Plant response rating, Rice, Water Seeded ([2]; 16 g ai/ha): 20
- Plant response rating, Rice, Water Seeded ([2]; 32 g ai/ha): 30
- Plant response rating, Rice, Water Seeded ([2]; 64 g ai/ha): 40
- Plant response rating, Rice, Water Seeded ([2]; 125 g ai/ha): 45
- Plant response rating, Barnyardgrass (barnyardgrass; 8 g ai/ha): 0
- Plant response rating, Barnyardgrass (barnyardgrass; 16 g ai/ha): 0
- Plant response rating, Barnyardgrass (barnyardgrass; 32 g ai/ha): 0
- Plant response rating, Barnyardgrass (barnyardgrass; 64 g ai/ha): 10
- Plant response rating, Barnyardgrass (barnyardgrass; 125 g ai/ha): 35
- Plant response rating, Watergrass, Early (early watergrass; 8 g ai/ha): 0
- Plant response rating, Watergrass, Early (early watergrass; 16 g ai/ha): 0
- Plant response rating, Watergrass, Early (early watergrass; 32 g ai/ha): 0
- Plant response rating, Watergrass, Early (early watergrass; 64 g ai/ha): 0
- Plant response rating, Watergrass, Early (early watergrass; 125 g ai/ha): 45
- Plant response rating, Junglerice (junglerice; 8 g ai/ha): 0
- Plant response rating, Junglerice (junglerice; 16 g ai/ha): 0
- Plant response rating, Junglerice (junglerice; 32 g ai/ha): 0
- Plant response rating, Junglerice (junglerice; 64 g ai/ha): 0
- Plant response rating, Junglerice (junglerice; 125 g ai/ha): 30
- Plant response rating, Kochia (kochia; [3]): 0
- Plant response rating, Kochia (kochia; Preemergence, 125 g ai/ha, scale 0 to 100): 85
- Plant response rating, Kochia (kochia; [4]): 85
- Plant response rating, Kochia (kochia; [5]): 95

Structure (SMILES): CCc1nc(C(C)(C)C)sc1C(=O)Nc1cccc(C(=O)NCC2CC2)n1 [Compound 215]
- Plant response rating, Redstem (purple redstem; 125 g ai/ha): 0
- Plant response rating, Redstem (purple redstem; 250 g ai/ha): 100
- Plant response rating, Redstem (purple redstem; 500 g ai/ha): 100
- Plant response rating, Redstem (purple redstem; 750 g ai/ha): 100
- Plant response rating, Redstem (purple redstem; 1000 g ai/ha): 100
- Plant response rating, Flatsedge, Rice (rice flatsedge; 125 g ai/ha): 0
- Plant response rating, Flatsedge, Rice (rice flatsedge; 250 g ai/ha): 60
- Plant response rating, Flatsedge, Rice (rice flatsedge; 500 g ai/ha): 60
- Plant response rating, Flatsedge, Rice (rice flatsedge; 750 g ai/ha): 80
- Plant response rating, Flatsedge, Rice (rice flatsedge; 1000 g ai/ha): 90
- Plant response rating, Sprangletop, Bearded (bearded sprangletop; 125 g ai/ha): 20
- Plant response rating, Sprangletop, Bearded (bearded sprangletop; 250 g ai/ha): 20
- Plant response rating, Sprangletop, Bearded (bearded sprangletop; 500 g ai/ha): 20
- Plant response rating, Sprangletop, Bearded (bearded sprangletop; 750 g ai/ha): 20
- Plant response rating, Sprangletop, Bearded (bearded sprangletop; 1000 g ai/ha): 20
- Plant response rating, Rice, Transplanted ([1]; 125 g ai/ha): 0
- Plant response rating, Rice, Transplanted ([1]; 250 g ai/ha): 10
- Plant response rating, Rice, Transplanted ([1]; 500 g ai/ha): 20
- Plant response rating, Rice, Transplanted ([1]; 750 g ai/ha): 20
- Plant response rating, Rice, Transplanted ([1]; 1000 g ai/ha): 35
- Plant response rating, Rice, Water Seeded ([2]; 125 g ai/ha): 20
- Plant response rating, Rice, Water Seeded ([2]; 250 g ai/ha): 35
- Plant response rating, Rice, Water Seeded ([2]; 500 g ai/ha): 45
- Plant response rating, Rice, Water Seeded ([2]; 750 g ai/ha): 45
- Plant response rating, Rice, Water Seeded ([2]; 1000 g ai/ha): 45
- Plant response rating, Barnyardgrass (barnyardgrass; 125 g ai/ha): 0
- Plant response rating, Barnyardgrass (barnyardgrass; 250 g ai/ha): 0
- Plant response rating, Barnyardgrass (barnyardgrass; 500 g ai/ha): 0
- Plant response rating, Barnyardgrass (barnyardgrass; 750 g ai/ha): 30
- Plant response rating, Barnyardgrass (barnyardgrass; 1000 g ai/ha): 40
- Plant response rating, Watergrass, Early (early watergrass; 125 g ai/ha): 0
- Plant response rating, Watergrass, Early (early watergrass; 250 g ai/ha): 0
- Plant response rating, Watergrass, Early (early watergrass; 500 g ai/ha): 20
- Plant response rating, Watergrass, Early (early watergrass; 750 g ai/ha): 25
- Plant response rating, Watergrass, Early (early watergrass; 1000 g ai/ha): 40
- Plant response rating, Junglerice (junglerice; 125 g ai/ha): 0
- Plant response rating, Junglerice (junglerice; 250 g ai/ha): 0
- Plant response rating, Junglerice (junglerice; 500 g ai/ha): 20
- Plant response rating, Junglerice (junglerice; 750 g ai/ha): 25
- Plant response rating, Junglerice (junglerice; 1000 g ai/ha): 25

Structure (SMILES): CCc1nn(C(C)(C)CC)nc1C(=O)Nc1cccc(C(=O)N(C)C)c1 [Compound 372]
- Plant response rating, Beggarticks, Bip. (bipinnate beggarticks; 62 g ai/ha, scale 0 to 100): 10
- Plant response rating, Beggarticks, Bip. (bipinnate beggarticks; 125 g ai/ha, scale 0 to 100): 40
- Plant response rating, Beggarticks, Bip. (bipinnate beggarticks; [6]): 50
- Plant response rating, Beggarticks, Bip. (bipinnate beggarticks; [7]): 60

Structure (SMILES): Cc1nn(C(C)(C)C)nc1C(=O)Nc1cccc(C(=O)N(C)C)c1 [Compound 391]
- Plant response rating, Beggarticks, Bip. (bipinnate beggarticks; 62 g ai/ha, scale 0 to 100): 40
- Plant response rating, Beggarticks, Bip. (bipinnate beggarticks; 125 g ai/ha, scale 0 to 100): 80
- Plant response rating, Beggarticks, Bip. (bipinnate beggarticks; [6]): 100
- Plant response rating, Beggarticks, Bip. (bipinnate beggarticks; [7]): 100
